What was measured:
[1] = target: [NEK7]-[compound of formula (I)]-[CRBN/DDB1] complex (Homo sapiens, UniProt Q8TDX7+Q96SW2); assay: HTRF ternary complex assay; type: binding; details: dose-response, 180 min at 25° C.; read-out: HTRF ternary complex Average pEC50 by molecule (converted)
Outline: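 Mix of 24 nM NEK7, 52.8 nM 6×His-CRBN/Strep-DDB1, 3 nM streptavidin-Eu cryptate and 6.67 nM anti-6×His-d2 in PPI Europium detection buffer with 1 mM DTT, dose-response compound, 0.5% DMSO, 180 min at 25° C. TR-FRET (665/620) read, normalized to DMSO background, Hill-slope fit gave EC50/pEC50.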

NEK7-HiBiT protein = NEK7-HiBiT protein (Homo sapiens, UniProt Q8TDX7); assay: NEK7-HiBiT degradation assay (Nano-Glo HiBiT Lytic Assay) in HEK293 NEK7-HiBiT cells; type: cell-based; details: 24 h, conc. 0.1, 1 and 10 μM tested, concentration of the table values not stated, mean of 3 technical replicates
Outline: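 HEK293 cells with CRISPR knock-in N-terminal HiBiT-tagged NEK7 exposed to compound for 24 h at 37 °C, 5% CO2. Residual NEK7-HiBiT was read as Nano-Glo HiBiT lytic luminescence and expressed as % of DMSO control across triplicates; compounds run at 0.1, 1 and 10 μM.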

Chain of [NEK7]-[compound of formula (I)]-[CRBN/DDB1] complex (Q8TDX7 whole entry): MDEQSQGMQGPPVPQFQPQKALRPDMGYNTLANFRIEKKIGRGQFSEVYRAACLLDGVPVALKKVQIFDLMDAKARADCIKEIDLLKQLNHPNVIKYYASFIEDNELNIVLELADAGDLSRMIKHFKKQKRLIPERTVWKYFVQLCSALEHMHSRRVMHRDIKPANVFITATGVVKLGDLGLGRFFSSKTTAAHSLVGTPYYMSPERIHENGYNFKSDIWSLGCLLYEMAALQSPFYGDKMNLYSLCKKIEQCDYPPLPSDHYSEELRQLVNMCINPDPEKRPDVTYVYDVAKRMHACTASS
Chain of [NEK7]-[compound of formula (I)]-[CRBN/DDB1] complex (Q96SW2 whole entry): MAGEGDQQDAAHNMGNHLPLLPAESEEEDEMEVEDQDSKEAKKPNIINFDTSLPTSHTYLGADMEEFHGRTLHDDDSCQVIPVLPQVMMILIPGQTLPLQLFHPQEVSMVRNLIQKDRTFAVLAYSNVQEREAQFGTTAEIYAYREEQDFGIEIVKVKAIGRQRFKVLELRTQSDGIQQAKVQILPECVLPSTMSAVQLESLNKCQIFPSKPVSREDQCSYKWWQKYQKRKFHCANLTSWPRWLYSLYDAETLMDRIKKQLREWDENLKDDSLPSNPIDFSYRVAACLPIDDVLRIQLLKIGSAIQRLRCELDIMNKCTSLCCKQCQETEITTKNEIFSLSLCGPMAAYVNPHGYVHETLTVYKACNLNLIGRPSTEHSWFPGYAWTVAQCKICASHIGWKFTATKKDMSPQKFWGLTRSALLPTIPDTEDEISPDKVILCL
Chain of [NEK7]-[compound of formula (I)]-[CRBN/DDB1] complex (Q16531 whole entry partner): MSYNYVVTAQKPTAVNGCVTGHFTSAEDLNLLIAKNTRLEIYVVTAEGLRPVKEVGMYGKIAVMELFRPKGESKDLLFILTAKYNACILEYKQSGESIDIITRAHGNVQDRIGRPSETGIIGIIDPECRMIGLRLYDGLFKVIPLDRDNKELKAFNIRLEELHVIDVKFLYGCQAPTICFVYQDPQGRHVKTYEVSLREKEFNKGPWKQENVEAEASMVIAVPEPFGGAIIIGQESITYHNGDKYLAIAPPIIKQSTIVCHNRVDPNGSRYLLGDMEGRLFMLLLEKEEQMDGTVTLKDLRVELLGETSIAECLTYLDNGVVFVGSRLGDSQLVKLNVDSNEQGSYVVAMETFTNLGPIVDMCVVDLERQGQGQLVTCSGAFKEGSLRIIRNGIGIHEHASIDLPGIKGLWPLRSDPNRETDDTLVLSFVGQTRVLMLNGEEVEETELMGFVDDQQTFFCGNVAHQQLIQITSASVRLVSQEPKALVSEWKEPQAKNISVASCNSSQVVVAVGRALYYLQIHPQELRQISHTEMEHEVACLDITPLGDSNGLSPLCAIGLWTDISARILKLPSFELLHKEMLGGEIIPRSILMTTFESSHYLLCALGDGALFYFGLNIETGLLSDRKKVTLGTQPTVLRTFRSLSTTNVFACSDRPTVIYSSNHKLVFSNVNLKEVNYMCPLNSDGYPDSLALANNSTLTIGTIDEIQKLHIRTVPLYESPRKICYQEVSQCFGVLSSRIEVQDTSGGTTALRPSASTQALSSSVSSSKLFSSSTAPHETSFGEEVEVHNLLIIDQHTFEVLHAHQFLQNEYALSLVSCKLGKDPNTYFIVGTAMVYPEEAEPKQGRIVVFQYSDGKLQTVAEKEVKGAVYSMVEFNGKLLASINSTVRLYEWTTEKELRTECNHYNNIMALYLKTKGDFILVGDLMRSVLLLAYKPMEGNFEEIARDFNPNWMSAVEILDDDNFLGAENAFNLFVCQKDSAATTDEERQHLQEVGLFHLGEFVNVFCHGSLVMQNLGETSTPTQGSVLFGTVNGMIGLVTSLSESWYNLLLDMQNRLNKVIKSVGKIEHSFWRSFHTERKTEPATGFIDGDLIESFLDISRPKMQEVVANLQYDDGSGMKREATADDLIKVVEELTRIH
Chain of NEK7-HiBiT protein (Q8TDX7 whole entry): as the sequence (Q8TDX7 whole entry) above
Chain of NEK7-HiBiT protein (Q96SW2 whole entry, further chain): as the sequence (Q96SW2 whole entry) above
Chain of NEK7-HiBiT protein (Q16531 whole entry partner): as the sequence (Q16531 whole entry partner) above

SMILES | EC50 [1] | Levels of NEK7-HiBiT Protein (as a % of DMSO control) (NEK7-HiBiT protein)
O=C1CCC(N2Cc3cc(C4CCCCN4)c(F)cc3C2=O)C(=O)N1 (centres unmarked) [Compound 23, 3-(6-fluoro-1-oxo-5-(piperidin-2-yl)isoindolin-2-yl)piperidine-2,6-dione] | > 3160 nM | B (Levels of NEK7-HiBiT Protein > 25% and ≤50%)
Cc1c(C2CCCCN2)ccc2c1CN(C1CCC(=O)NC1=O)C2=O (centres unmarked) [Compound 19, 3-(4-methyl-1-oxo-5-(piperidin-2-yl)isoindolin-2-yl)piperidine-2,6-dione] | > 3160 nM | B (Levels of NEK7-HiBiT Protein > 25% and ≤50%)
O=C1CCC(N2Cc3cc(-c4ccccn4)ccc3C2=O)C(=O)N1 (centres unmarked) [2(2), 3-(1-oxo-5-(pyridin-2-yl)isoindolin-2-yl)piperidine-2,6-dione] | 316 to 1000 nM | B (Levels of NEK7-HiBiT Protein > 25% and ≤50%)
O=C1CCC(N2Cc3cc(-c4ccc(-c5ccccc5)cn4)ccc3C2=O)C(=O)N1 (centres unmarked) [4(2), 3-(1-oxo-5-(5-phenylpyridin-2-yl)isoindolin-2-yl)piperidine-2,6-dione] | 100 to 316 nM | A (Levels of NEK7-HiBiT Protein ≤ 25%)
O=C1CCC(N2Cc3cc(C4CCCCN4)ccc3C2=O)C(=O)N1 (centres unmarked) [Compound 2, 3-(1-oxo-5-(piperidin-2-yl)isoindolin-2-yl)piperidine-2,6-dione] | 316 to 1000 nM | A (Levels of NEK7-HiBiT Protein ≤ 25%)

Other lines, results leading:

EC50 [1] | Levels of NEK7-HiBiT Protein (as a % of DMSO control) (NEK7-HiBiT protein) | SMILES
316 to 1000 nM | A (Levels of NEK7-HiBiT Protein ≤ 25%) | CC1c2cc(C3CCCCN3)ccc2C(=O)N1C1CCC(=O)NC1=O (centres unmarked) [Compound 25, 3-(3-methyl-1-oxo-5-(piperidin-2-yl)isoindolin-2-yl)piperidine-2,6-dione]
316 to 1000 nM | A (Levels of NEK7-HiBiT Protein ≤ 25%) | CC1c2cc(C3CCCCO3)ccc2C(=O)N1C1CCC(=O)NC1=O (centres unmarked) [Compound 64, 3-(3-methyl-1-oxo-5-(tetrahydro-2H-pyran-2-yl)isoindolin-2-yl)piperidine-2,6-dione]

Reference: patent US20260151403A1, “NEK7 DEGRADERS AND METHODS OF USE THEREOF” (Captor Therapeutics S.A., priority 2022, published 2026)
